Data reported in ChEMBL document CHEMBL5500335, “Ligand-based design and synthesis of new trityl histamine and trityl cysteamine derivatives as SIRT2 inhibitors for cancer therapy” (Eur J Med Chem, 2024).
One block for each compound: values may come before it. Calls of active or inactive are those of the source. The calls are words filed in the database; no cut-off is given here.

Legend:
[1] = molecular target: T1, NAD-dependent protein deacetylase sirtuin-2 (Homo sapiens, UniProt Q8IXJ6); test: Inhibition of recombinant SIRT2 (unknown origin) deacetylase activity using Ac-RHKK(Ac)-MCA as substrate incubated for 60 mins in presence of NAD by fluorogenic assay
T1 sequence (Q8IXJ6 whole entry): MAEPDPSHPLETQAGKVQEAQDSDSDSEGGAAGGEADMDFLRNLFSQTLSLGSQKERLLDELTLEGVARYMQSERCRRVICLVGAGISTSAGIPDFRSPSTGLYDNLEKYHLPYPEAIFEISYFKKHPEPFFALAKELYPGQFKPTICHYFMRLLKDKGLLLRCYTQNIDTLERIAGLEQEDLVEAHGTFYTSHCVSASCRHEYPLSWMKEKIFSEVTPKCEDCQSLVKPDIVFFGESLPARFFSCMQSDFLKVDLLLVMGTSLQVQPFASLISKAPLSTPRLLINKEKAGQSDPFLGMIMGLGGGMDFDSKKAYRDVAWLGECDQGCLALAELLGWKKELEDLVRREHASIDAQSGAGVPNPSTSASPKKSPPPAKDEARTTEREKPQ

[2] = system: Panel NCI-60 (60 carcinoma cell lines); test: Growth inhibition of human Panel NCI-60 (60 carcinoma cell lines) cells incubated for 48 hrs by SRB assay; type: functional
[3] = system: Panel NCI-60 (60 carcinoma cell lines); test: Antiproliferative activity against human Panel NCI-60 (60 carcinoma cell lines) cells assessed as inhibition of cell growth incubated for 48 hrs by SRB assay; type: functional
[4] = system: Panel NCI-60 (60 carcinoma cell lines); test: Antiproliferative activity against human Panel NCI-60 (60 carcinoma cell lines) cells assessed as decrease in cell count incubated for 48 hrs by SRB assay; type: functional
[5] = molecular target: T2, NAD-dependent protein deacetylase sirtuin-2 (Homo sapiens) (UniProt Q8IXJ6); test: Inhibition of SIRT2 in human MCF7 cells assessed as induction of eIF5A acetylation incubated for 24 hrs by immunoblotting analysis; type: cell-based; conditions: dose 2-10 µM
T2 sequence (whole entry): T1 sequence (Q8IXJ6 whole entry)

[6] = system: MCF7; test: Cell cycle arrest in human MCF7 cells assessed as G0-G1 phase cells incubated for 24 hrs by flow cytometric analysis (reference value: 55.8 %); type: functional
[7] = system: MCF7; test: Cell cycle arrest in human MCF7 cells assessed as accumulation of S phase cells incubated for 24 hrs by flow cytometric analysis (reference value: 26.6 %); type: functional
[8] = system: MCF7; test: Cell cycle arrest in human MCF7 cells assessed as accumulation of G2/M phase cells incubated for 24 hrs by flow cytometric analysis (reference value: 18 %); type: functional
[9] = Cytotoxicity against human PBMC cells assessed as cell viability at 10 uM incubated for 2 days by MTT assay relative to control; type: toxicity, cell-based; conditions: time 2 day, read-out: Activity
[10] = Cytotoxicity against human PBMC cells assessed as cell viability at 1 uM incubated for 2 days by MTT assay relative to control; type: toxicity, cell-based; conditions: time 2 day, read-out: Activity
[11] = Cytotoxicity against human PBMC cells assessed as cell viability incubated for 2 days by MTT assay; type: toxicity, cell-based
[12] = Selectivity ratio of IC50 for antiproliferative activity against spontaneous remission leukemia cell line (unknown origin) to IC50 for cytotoxicity against human PBMC cells; type: toxicity, cell-based; conditions: read-out: Ratio IC50
[13] = Selectivity ratio of IC50 for antiproliferative activity against human MOLT-4 cells to IC50 for cytotoxicity against human PBMC cells; type: toxicity, cell-based; conditions: MOLT-4 cells and PBMC cells, read-out: Ratio IC50
[14] = system: DNA; test: Induction of DNA (unknown origin) cleavage; type: nucleic-acid assay

Structure (SMILES): CCN(CC)c1ccnc(CNCCSC(c2ccccc2)(c2ccccc2)c2ccc(C)cc2)c1
IC50 [1]: 27300 nM | GI50 [2]: 1380 nM | TGI [3]: 2850 nM | LC50 (50% net cell kill) [4]: ≥ 5590 nM

Structure (SMILES): COc1ccc(C2(SCCNCc3cc(N(C)C)ccn3)c3ccccc3CCc3ccccc32)cc1
IC50 [1]: 8630 nM | GI50 [2]: 190 nM | TGI [3]: 440 nM

Structure (SMILES): CN(C)c1ccnc(CNCCSC2c3ccccc3C=Cc3ccccc32)c1
IC50 [1]: > 50000 nM

Structure (SMILES): CN(C)c1ccnc(CNCCCSC(c2ccccc2)(c2ccccc2)c2ccccc2)c1
IC50 [1]: 26100 nM | GI50 [2]: 1550 nM | TGI [3]: 3190 nM

Structure (SMILES): CN(C)c1ccnc(CNCCSC2(c3ccccc3)c3ccccc3CCc3ccccc32)c1
IC50 [1]: 10600 nM | GI50 [2]: 1510 nM | TGI [3]: ≥ 2930 nM

Structure (SMILES): CN(C)c1ccnc(CNCCSC2(c3ccc(C(F)(F)F)cc3)c3ccccc3CCc3ccccc32)c1
IC50 [1]: 49600 nM | GI50 [2]: 180 nM | TGI [3]: 370 nM | LC50 (50% net cell kill) [4]: ≥ 4770 nM

IC50 [1]: 7610 nM
Structure (SMILES): CCN(CC)c1ccnc(CNC(Cc2cn(C(c3ccccc3)(c3ccccc3)c3ccccc3)cn2)C(=O)OC)c1 (centres undefined)

Structure (SMILES): CN(C)c1ccnc(CNCCSC2(c3ccccc3)c3ccccc3C=Cc3ccccc32)c1
IC50 [1]: 12000 nM | GI50 [2]: 220 nM | TGI [3]: ≥ 500 nM | LC50 (50% net cell kill) [4]: ≥ 2170 nM

Structure (SMILES): CCN(CC)c1ccnc(CNCCc2cn(C(c3ccccc3)(c3ccccc3)c3ccccc3)cn2)c1
IC50 [1]: 15400 nM | GI50 [2]: 1030 nM | TGI [3]: ≥ 3200 nM

Structure (SMILES): COc1ccc(C2(SCCNCc3cc(N(C)C)ccn3)c3ccccc3C=Cc3ccccc32)cc1
IC50 [1]: 5630 nM | inhibition [5]: Dose-Dependent Effect | GI50 [2]: 40 nM | TGI [3]: ≥ 70 nM | LC50 (50% net cell kill) [4]: ≥ 720 nM | Activity [6]: 26.7% | Activity [7]: 29.4% | Activity [8]: 46.5% | viability at 48 h, 10 µM [9]: 16.2% | viability at 48 h, 1 µM [10]: 84.9% | IC50 at 2 days [11]: > 1000 nM | selectivity ratio [12]: 25 | selectivity ratio [13]: 2.2 | Activity [14]: inactive

Structure (SMILES): COc1ccc(C(SCCNCc2cc(N(C)C)ccn2)(c2ccccc2)c2ccccc2)cc1
IC50 [1]: 12400 nM | GI50 [2]: 210 nM | TGI [3]: ≥ 480 nM | LC50 (50% net cell kill) [4]: ≥ 1820 nM

Structure (SMILES): Cc1ccc(C(SCCNCc2cc(N(C)C)ccn2)(c2ccccc2)c2ccccc2)cc1
IC50 [1]: 9910 nM | GI50 [2]: 370 nM | TGI [3]: 1570 nM | LC50 (50% net cell kill) [4]: ≥ 4650 nM

Structure (SMILES): CCN(CC)c1ccnc(CNCCSC(c2ccccc2)(c2ccccc2)c2ccc(OC)cc2)c1
IC50 [1]: 14200 nM | GI50 [2]: 1300 nM | TGI [3]: 3060 nM | LC50 (50% net cell kill) [4]: ≥ 5590 nM

Structure (SMILES): CN(C)c1ccnc(CNCCSC2(c3ccc(C(F)(F)F)cc3)c3ccccc3C=Cc3ccccc32)c1
IC50 [1]: > 50000 nM | GI50 [2]: 610 nM | TGI [3]: 4390 nM | LC50 (50% net cell kill) [4]: ≥ 10000 nM

Structure (SMILES): CN(C)c1ccnc(CNCCc2cn(C(c3ccccc3)(c3ccccc3)c3ccccc3)cn2)c1
IC50 [1]: 8620 nM | GI50 [2]: 260 nM | TGI [3]: 1190 nM
